{
  "source": "patent US20160220464A1",
  "about": "(WUHAN OPTICS VALLEY BRIDGEBIOMED INTERNATIONAL CORPORATION, priority 2013, published 2016)",
  "key": {"B2 receptor": {"biological_target": "T1, B2 receptor (Homo sapiens, UniProt P30411)", "T1 construct": "The cell strains used in the study were human primary vein endothelial cells (HPVEC) and human aortic smooth muscle cells (HASMC); endogenous in cells; host or cells: human primary vein endothelial cells (HPVEC) and human aortic smooth muscle cells (HASMC)", "T1 sequence (P30411 1-391)": "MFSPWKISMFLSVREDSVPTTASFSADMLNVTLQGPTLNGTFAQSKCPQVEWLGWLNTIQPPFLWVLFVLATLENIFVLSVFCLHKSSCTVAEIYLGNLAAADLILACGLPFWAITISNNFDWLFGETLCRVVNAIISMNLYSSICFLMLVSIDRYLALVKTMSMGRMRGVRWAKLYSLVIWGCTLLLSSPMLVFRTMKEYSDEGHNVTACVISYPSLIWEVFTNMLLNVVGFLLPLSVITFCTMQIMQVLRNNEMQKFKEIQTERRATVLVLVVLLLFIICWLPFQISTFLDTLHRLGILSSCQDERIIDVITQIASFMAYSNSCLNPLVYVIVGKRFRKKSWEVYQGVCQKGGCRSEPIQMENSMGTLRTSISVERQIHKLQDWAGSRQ", "experiment": "Relative PG secretion with B2 receptor inhibitor HOE-140", "type": "cell-based", "conditions": "1 μM BK set as 100%", "experimental": "Two different cell lines were transferred into T-75 cell culture flask, and then the instructions of PG kit were strictly followed when cells have reached the appropriate density. Day 1. Cells were seeded in 24 well dishes with minimum medium and allowed to adhere overnight. Day 2. Cells were starved in the serum-free conditioned medium. Day 3. […] Cells were incubated at 37° C. for 1 h. The supernatant was collected after incubation for later use. Day 4. 24 well dishes were washed and then dyed for 45-90 min, and then the quantitative analysis was carried out."}, "[1]": {"tested_on": "human aortic smooth muscle cells (HASMC)", "experiment": "PG subtype secretion by EIA in HASMC", "type": "cell-based", "conditions": "10 nM, 1 μM BK set as 100%"}, "[2]": {"tested_on": "human primary vein endothelial cells (HPVEC)", "experiment": "PG subtype secretion by EIA in HPVEC", "type": "cell-based", "conditions": "10 nM, 1 μM BK set as 100%", "experimental": "In order to study of prostaglandin subtypes secretion triggered by activation of B2 receptor by these three compounds, human primary vein endothelial cells (HPVEC) and human aortic smooth muscle cells (HASMC) were used for PG secretion, following the same protocol above; 10 nM of these compounds, YLB-1, YLB-2, YLB-3 was added. […] These percentage values above were all calibrated with respect to bradykinin."}, "human lower leg hair": {"tested_on": "human lower leg hair", "experiment": "Hair growth after topical 0.3% suspension on human lower leg", "type": "in vivo", "conditions": "twice a day", "description": "(§1) The B2 receptor agonist (YLB-01) suspension with 0.3% concentration was obtained for clinical use as described above. The suspension was applied to human lower leg twice a day, for 3 months; hair growth was observed. The treated areas were observed daily to monitor hair growth and side effects, e.g. swelling, pruritus, pain, etc. And the treated parts were photographed weekly.\nas §1, with “above and” for “above. The suspension”"}},
  "data": [
    {"smiles": "CNC(=O)c1ccc(CCC(=O)NCC(=O)N(C)c2ccc(Cl)c(COc3cccc4c3nc(OC)n4Cc3ccccn3)c2Cl)cc1", "note": "[YLB-01, 4-(3-2-((2,4-dichloro-3-((2-methoxy-1-(pyridine-2ylmethyl)-1H-benzo[d]imidazol-4-yloxy)methyl)phenyl)(methyl)amino-2-oxoethylamino)-3-oxopropyl)-N-methylbenzamid]", "values": [
      {"measurement": "Relative PG Secretion Amount with 1 μM HOE-140", "setting": "B2 receptor; agonist 0.1 nM + HOE-140 1 μM", "result": "1.54 ± 2.53", "unit": "%"},
      {"measurement": "Relative PG Secretion Amount with 1 μM HOE-140", "setting": "B2 receptor; agonist 1 nM + HOE-140 1 μM", "result": "4.21 ± 3.74", "unit": "%"},
      {"measurement": "Relative PG Secretion Amount with 1 μM HOE-140", "setting": "B2 receptor; agonist 10 nM + HOE-140 1 μM", "result": "4.17 ± 3.21", "unit": "%"},
      {"measurement": "Relative PG Secretion Amount with 1 μM HOE-140", "setting": "B2 receptor; agonist 30 nM + HOE-140 1 μM", "result": "2.86 ± 2.35", "unit": "%"},
      {"measurement": "Relative PG Secretion Amount with 1 μM HOE-140", "setting": "B2 receptor; agonist 100 nM + HOE-140 1 μM", "result": "3.44 ± 3.77", "unit": "%"},
      {"measurement": "Relative PG Secretion Amount with 1 μM HOE-140", "setting": "B2 receptor; agonist 300 nM + HOE-140 1 μM", "result": "0.45 ± 2.86", "unit": "%"},
      {"measurement": "Relative PG Secretion Amount with 1 μM HOE-140", "setting": "B2 receptor; agonist 1 μM + HOE-140 1 μM", "result": "3.66 ± 2.11", "unit": "%"},
      {"measurement": "Relative PG Secretion Amount with 1 μM HOE-140", "setting": "B2 receptor; agonist 3 μM + HOE-140 1 μM", "result": "6.98 ± 1.6", "unit": "%"},
      {"measurement": "Relative PG Secretion Amount with 1 μM HOE-140", "setting": "B2 receptor; agonist 10 μM + HOE-140 1 μM", "result": "40.32 ± 3.27", "unit": "%"},
      {"measurement": "PGD2", "setting": "[1]", "result": "undetectable"},
      {"measurement": "PGE2", "setting": "[1]", "result": "34.64 ± 12.27", "unit": "%"},
      {"measurement": "PGF-2a", "setting": "[1]", "result": "5.68 ± 2.08", "unit": "%"},
      {"measurement": "PGD2", "setting": "[2]", "result": "undetectable"},
      {"measurement": "PGE2", "setting": "[2]", "result": "30.24 ± 5.40", "unit": "%"},
      {"measurement": "PGF-2a", "setting": "[2]", "result": "6.29 ± 1.01", "unit": "%"},
      {"measurement": "hair growth", "setting": "human lower leg hair; 0 week", "result": 0, "unit": "mm"},
      {"measurement": "hair growth", "setting": "human lower leg hair; 2 weeks", "result": "4.89 ± 0.38", "unit": "mm"},
      {"measurement": "hair growth", "setting": "human lower leg hair; 3 weeks", "result": "6.82 ± 0.4", "unit": "mm"},
      {"measurement": "hair growth", "setting": "human lower leg hair; 4 weeks", "result": "9.61 ± 0.55", "unit": "mm"},
      {"measurement": "hair growth compared with control group (photos, FIG. 2)", "setting": "human lower leg hair; 3 months", "result": "hairs grew more quickly than those in control group"},
      {"measurement": "new hair growth in parts used to be bald (photos, FIG. 1)", "setting": "human lower leg hair; 3 months", "result": "tiny new hairs grew out"}
    ]}
  ]
}
